What was measured:
[1] = tested on: GH3 cells stably expressing HER2CA; test: Soft agarose colony-forming assay, HER2CA transfectants; format: cell-based, rat; settings: HER2CA transfectants, 10 d after seeding
Protocol: B. GH3 cells stably expressing HER2CA or pcDNA3 were plated (4,000 per well) in 96 well plates for the indicated times, and WST assay performed. C. […] Values are mean±SEM. *p<0.05, ** p<0.01, ^‡p<0.05 vs pcDNA3 control, ^†p<0.05 vs HER2CA control, ^‡‡p<0.05 vs pcDNA3 control, ^††p<0.05 vs HER2CA control.
Base layers consisting of growth medium containing 0.6% low-melting point agarose (Invitrogen) were poured onto 6-well plates and allowed to solidify. Cells (8×10^3 per well) were plated in triplicate in top layers consisting of growth medium containing 0.3% agarose. Seven to ten days later, cells were stained with 0.2% iodonitrotetrazolium chloride (Invitrogen), and colonies composed of 50 cells were counted manually in 5 randomly selected fields.

[2] = tested on: GH3 cells stably expressing HER2CA; test: RIA of PRL and GH secretion in culture medium of GH3 stable transfectants; format: cell-based, rat; settings: each respective transfectant (pcDNA3, HER2CA); 5 nM EGF or 6 nM HRG
Protocol: μM) for the indicated times, and Realtime PCR analysis performed. C. GH and PRL secretion in the culture medium determined by RIA. Hormone secretion levels were normalized for cell numbers, Values are mean±SEM. *p<0.05, **p<0.01.
GH3 rat lacto-somatotroph tumor cells secreting PRL and GH were purchased from the American Type Culture Collection. HER2CA cells were generated by transfection with pcDNA3-HER2CA (V654E) purchased from Addgene (Addgene plasmid 16259). Stable colonies were selected in the presence of 500 μg/ml G418 (Invitrogen). A vector control cell line pcDNA3 was simultaneously established by transfecting pcDNA3 that lacked inserted cDNA. After selection and propagation of stable transfectants, cells were cultured in DMEM/F12 medium containing 15% horse serum, 2.5% FBS, penicillin/streptomycin, and 500 μg/m G418. After synchronization by serum starvation (medium containing 0.2% bovine serum albumin for ˜24 h), cells with treatment agents was grown in fresh serum-depleted medium (0.2% bovine serum albumin), and samples collected at the indicated times.
RIAs for rat GH and PRL were performed in duplicate, using reagents provided by the National Hormone and Pituitary Program, National Institute of Diabetes and Digestive and Kidney Diseases (Harbor-UCLA Medical Center, Torrance, Calif., USA). Iodination of GH and PRL (5 μg) with iodine-125 (500 μCi) (PerkinElmer life & Analytical Sciences, Boston, Mass., USA) mixed with 0.1 mg Iodo-Gen (Pierce, Rockford, Ill.) was performed using 10-ml columns prepared by G-75 Sephadex (Sigma Chemical Co.). Low interspecies cross-reactivity of the GH and PRL assays were previously shown (8).

[3] = tested on: GH3 cells stably expressing HER2CA; test: Realtime PCR of PRL and GH mRNA in GH3 stable transfectants; format: cell-based, rat; settings: each respective transfectant (pcDNA3, HER2CA); 5 nM EGF or 6 nM HRG
Protocol: A. […] C. GH and PRL secretion in the culture medium determined by RIA. Hormone secretion levels were normalized for cell numbers, Values are mean±SEM. *p<0.05, **p<0.01. […] GH3 rat lacto-somatotroph tumor cells secreting PRL and GH were purchased from the American Type Culture Collection. HER2CA cells were generated by transfection with […]) purchased from Addgene (Addgene plasmid 16259). Stable colonies were selected in the presence of 500 μg/ml G418 (Invitrogen). A vector control cell line pcDNA3 was simultaneously established by transfecting pcDNA3 that lacked inserted cDNA. […] After synchronization by serum starvation (medium containing 0.2% bovine serum albumin for 24 h), cells with treatment agents was grown in fresh serum-depleted medium (0.2% bovine serum albumin), and samples collected at the indicated times. Total RNA was extracted with Trizol reagent (Invitrogen) according to instructions of the manufacturer. The amount and the integrity of RNA were assessed by measurement of absorbance at 260 and 280 nm. Total RNA was reverse-transcribed into first-strand cDNA using iScript cDNA synthesis kit (Bio-Rad Laboratories, Inc.) according to the manufacturer. Quantitative PCR reactions were carried out in the iQ5 Multicolor Real-time PCR Detection System (Bio-Rad Laboratories, Inc.) as described (8). […] Primer sequences (Invitrogen) were [NT] rRNA forward ([…] rRNA reverse ([NT] (human (3-actin [NT] (human (3-actin […]).

human prolactinoma cells = test: Realtime PCR of PRL in primary human prolactinoma cell cultures; format: cell-based; settings: Tumor B; 0.1-5 μM, 24 hr, in the absence of added EGF
Protocol: A, B, D, and E. After trans-sphenoidal surgery of human prolactinomas, tumor cells were cultured. […] PRL levels in culture media were measured using RIA (B). H&E and PRL staining of tumor and confocal immunocytochemistry of EGFR and HER2 (Tumor A) (C), or for Tumor B (F). Magnification of these figures was 100×. […] PRL levels in culture media were measured using RIA (E). Prolactinoma cells (Tumor B) were treated with U0126 (0.1-5 μM) for 24 hr, and Realtime PCR of PRL performed (G).
Total RNA was extracted with Trizol reagent (Invitrogen) according to instructions of the manufacturer. The amount and the integrity of RNA were assessed by measurement of absorbance at 260 and 280 nm. Total RNA was reverse-transcribed into first-strand cDNA using iScript cDNA synthesis kit (Bio-Rad Laboratories, Inc.) according to the manufacturer. Quantitative PCR reactions were carried out in the iQ5 Multicolor Real-time PCR Detection System (Bio-Rad Laboratories, Inc.) as described (8). Certified RT^2 primer assays for rat GH, PRL and human PRL were purchased from SuperArray. Primer sequences (Invitrogen) were 5′-[…]-3′ (18S rRNA forward (F)), 5′-[…]-3′ (18S rRNA reverse (R)), 5′-[…]-3′ (human (3-actin F), 5′-[…]-3′ (human (3-actin R), 5′-[…]-3′ (human GAPDH F), 5′-[…]-3′ (human GAPDH R).
Human prolactinoma tissues were obtained at the time of surgery (Pituitary Center, Cedars-Sinai Medical Center) and transferred in 0.3% BSA containing DMEM according to an IRB-approved protocol. After washing with medium, tumor tissues were chopped with a sterile scalpel into approximately 1-2 mm pieces. Tissues were rinsed and digested with DMEM containing 0.3% BSA, 0.35% collagenase, and 0.15% hyaluronidase at 37° C. for 30 min The mixture was centrifuged at 1,500 rpm for 5 min at 4° C., and the cell pellet resuspended in an appropriate volume of culture medium containing 10% FBS and antibiotics in 48 well plates. After 24 hr incubation with serum depleted starvation medium (DMEM with 0.3% BSA), treatment agents were added with fresh serum-depleted medium (0.3% BSA), and medium collected for RIA. RNA was extracted after 24 hr treatment. Medium was also collected at baseline. To normalize for cell number effect, the PRL value of treated medium was divided by that of pre-treatment starvation medium to obtain a treated value for each well (n=4).

“EGF: epidermal growth factor, ErbB family receptor ligand, from Sigma (NSDSECPLSHDGYCLHDGVCMYIEALDKYACNCVVGYIGERCQYRDLKWWELR; Epidermal growth factor; UniProt P01133 971-1023, looked up)” was tested, and the “enhancement of colony formation in soft agar” value [1] was roughly 8 fold, the “induction of PRL secretion” value [2] was “approximately 2 fold” and the “induction of PRL expression” value [3] was “approximately 2 fold”.
`N#CC(=C(/N)Sc1ccccc1N)/C(C#N)=C(\N)Sc1ccccc1N` [U0126] was tested, and the “suppression of human PRL expression” value (human prolactinoma cells) was roughly 55%.

From patent publication US20120308567A1, “USE OF TYROSINE KINASE INHIBITORS FOR TREATMENT OF PROLACTINOMA” (CEDARS-SINAI MEDICAL CENTER, priority 2010, published 2012)
